What was measured:
[1] = target: T1, PARP1 (Homo sapiens, UniProt P09874); assay: Biochemical fluorescent polarization (FP) assay, displacement of PARPi-FL, PARP1; format: binding; settings: 20 nM protein, 3 nM PARPi-FL, 4 h at room temperature; for IC50: read-out: FP PARP1 pIC50 (converted)
T1 construct: made in house
Method: (§1) Compounds were characterized using an assay measuring the displacement of a commercially available fluorescently labeled PARP 1/2 inhibitor (PARPi-FL, Tocris Biosciences, #6461) as exemplified in assays performed in WO2014/064149 and WO2021/013735A1. The assay was performed utilizing the following method: Compounds were dissolved in DMSO an Echo550 liquid handler was utilized to make serial dilations in the desired concentration range in Optiplate-384F plates. 100% DMSO was used for the high (with protein) and low (without protein) control samples. 20 nL of compound or DMSO alone was added to individual assay plate wells. PARP1 and PARP2 protein were expressed, purified, and diluted in assay buffer containing 50 mM Tris pH 8.0, 0.001% Triton X-100, 10 mM MgCl2, 150 mM NaCl to a final concentration of 20 nM. The PARPi-FL was then added at a final concentration of 3 nM. The assay plate was centrifuged at 1000 rpm for 1 min and incubated for 4 h at room temperature. […] [formula]

[2] = target: T2, PARP2 (Homo sapiens, UniProt Q9UGN5); assay: Biochemical fluorescent polarization (FP) assay, displacement of PARPi-FL, PARP2; format: binding; settings: 20 nM protein, 3 nM PARPi-FL, 4 h at room temperature; read-out: FP PARP2 pIC50 (converted)
T2 construct: made in house
Method: as §1

[3] = tested on: DLD-1 BRCA2(−/−) cells; assay: Cell growth inhibition assay (CellTiter-Glo), DLD-1 BRCA2(−/−); format: cell-based; settings: Homo sapiens, DLD-1, 168 h; 200 cells/well, 7 days, CellTiter Glo 2.0; read-out: DLD-1 BRCA2(−/−) pEC50 (converted)
Method: (§2) Cell proliferation was measured through the cell viability assay using DLD-1 BRCA2(−/−) and parental isogenic pair and MDA-MB-436 (mutated BRCA1) cell lines. The CellTiter-Glo (CTG) based cell viability assay is designed to determine the number of viable cells in the culture because of compound effect, by quantifying ATP, which indicates the presence of metabolically active cells.
(§3) DLD-1 BRCA2(−/−) and parental isogenic pair were cultured in RPMI 1640 supplemented with […] (FBS), and […] cells were cultured in DMEM supplemented with 10% FBS. Both were cultured at 37° C. with […]. Invention compounds were distributed to the 384 well plate (Corning, 3764) using Echo acoustic liquid handler to form a 1:3 serially diluted final concentration with top dose of 10 or 30 μM. The cells were seeded into the plate in the density of 50 cells/well (DLD-1 parental), 200 cells/well (DLD-1 BRCA2−/−), or 500 cells/well (MDA-MB-436). After a short spun, the cells were cultured in a well moisturized incubator at 37° C. with 5% CO2 for 7 days without disturbance. The cell viability was measured by CellTiter Glo 2.0 assay kit (Promega, G9243), and growth inhibition rate was calculated and plotted against final compound concentration, and the data were fitted in Xfit to generate IC50 values.

[4] = tested on: MDA-MB-436 (mutated BRCA1) cells; assay: Cell growth inhibition assay (CellTiter-Glo), MDA-MB-436; format: cell-based; settings: Homo sapiens, MDA-MB-436, 168 h, 500 cells/well, 7 days, CellTiter Glo 2.0; read-out: MDA-MB-436 pEC50 (converted)
Method: as §2, §3

T2 sequence (Q9UGN5 whole entry): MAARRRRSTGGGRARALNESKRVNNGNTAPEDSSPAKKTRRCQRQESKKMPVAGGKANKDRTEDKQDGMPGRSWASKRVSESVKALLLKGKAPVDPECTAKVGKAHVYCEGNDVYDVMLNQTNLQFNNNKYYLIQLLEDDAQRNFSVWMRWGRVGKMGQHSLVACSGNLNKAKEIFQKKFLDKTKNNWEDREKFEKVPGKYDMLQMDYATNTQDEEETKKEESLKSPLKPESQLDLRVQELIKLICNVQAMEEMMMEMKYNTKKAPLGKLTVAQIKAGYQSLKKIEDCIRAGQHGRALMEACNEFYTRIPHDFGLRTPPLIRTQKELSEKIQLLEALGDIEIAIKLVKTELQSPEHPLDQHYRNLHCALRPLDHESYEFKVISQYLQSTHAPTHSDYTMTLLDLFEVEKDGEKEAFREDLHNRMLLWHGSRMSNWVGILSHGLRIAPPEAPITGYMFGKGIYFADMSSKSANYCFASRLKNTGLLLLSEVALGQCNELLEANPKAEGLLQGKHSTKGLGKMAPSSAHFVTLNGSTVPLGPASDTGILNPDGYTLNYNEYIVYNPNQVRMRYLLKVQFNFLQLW
T1 sequence (P09874 whole entry): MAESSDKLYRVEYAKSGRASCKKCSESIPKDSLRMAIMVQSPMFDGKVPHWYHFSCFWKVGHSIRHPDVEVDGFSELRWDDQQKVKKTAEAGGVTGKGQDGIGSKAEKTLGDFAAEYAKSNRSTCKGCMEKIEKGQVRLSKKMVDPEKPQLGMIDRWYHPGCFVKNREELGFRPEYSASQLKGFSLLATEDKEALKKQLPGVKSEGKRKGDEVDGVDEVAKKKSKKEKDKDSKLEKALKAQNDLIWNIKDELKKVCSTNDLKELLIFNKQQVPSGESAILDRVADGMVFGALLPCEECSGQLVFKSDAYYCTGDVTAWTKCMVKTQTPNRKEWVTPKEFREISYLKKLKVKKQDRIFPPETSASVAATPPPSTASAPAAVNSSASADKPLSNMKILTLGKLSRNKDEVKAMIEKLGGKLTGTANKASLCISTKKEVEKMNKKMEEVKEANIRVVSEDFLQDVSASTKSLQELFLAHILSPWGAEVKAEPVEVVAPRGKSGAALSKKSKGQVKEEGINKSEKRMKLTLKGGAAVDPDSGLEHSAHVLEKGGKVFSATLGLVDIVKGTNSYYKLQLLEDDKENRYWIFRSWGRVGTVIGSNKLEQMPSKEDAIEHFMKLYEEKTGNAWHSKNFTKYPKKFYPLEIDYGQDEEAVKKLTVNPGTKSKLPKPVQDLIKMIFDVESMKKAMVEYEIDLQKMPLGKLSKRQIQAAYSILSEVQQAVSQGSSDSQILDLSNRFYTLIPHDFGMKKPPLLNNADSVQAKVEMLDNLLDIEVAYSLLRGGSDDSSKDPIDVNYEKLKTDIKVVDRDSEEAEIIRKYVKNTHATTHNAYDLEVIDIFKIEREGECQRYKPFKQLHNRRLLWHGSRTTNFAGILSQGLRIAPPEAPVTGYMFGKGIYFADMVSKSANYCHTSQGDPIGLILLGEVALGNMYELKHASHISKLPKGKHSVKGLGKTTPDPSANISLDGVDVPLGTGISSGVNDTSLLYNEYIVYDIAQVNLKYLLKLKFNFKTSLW

SMILES | IC50 [1] [nM] | IC50 [2] [nM] | EC50 [3] [nM] | EC50 [4] [nM] | FP PARP1 pIC50 [1]
CCc1cc2ncc(CN3CCN(c4ccc(Cl)cn4)CC3)cc2[nH]c1=O [Example 8] | 15.8 | > 100000 | 5.01 | 3.16 | 
[2H]C([2H])(c1cnc2cc(C)c(=O)[nH]c2c1)N1CCN(c2ccc(C#N)cn2)CC1 [Example 37] |  | > 100000 | 3.16 | 1.58 | 8.5
N#Cc1ccc(N2CCN(Cc3cnc4cc(Br)c(=O)[nH]c4c3)CC2)nc1 [Example 60, 6-{4-[(7-bromo-6-oxo-5H-1,5-naphthyridin-3-yl)methyl]piperazin-1-yl}pyridine-3-carbonitrile] | 6.31 | 2000 | 1.58 | 1.26 | 
[2H]C([2H])(c1cnc2cc(C(F)F)c(=O)[nH]c2c1)N1CCN(c2ccc(C#N)cn2)CC1 [Example 63] | 15.8 | 794 | 1.58 | 1.26 | 
Cc1cc2ncc(CN3CCN(c4ccc(C#N)nc4)CC3)cc2[nH]c1=O [Example 11] | 10 | 79400 | 20 | 39.8 | 
CCc1cc2ncc(CN3CCN(c4ccc(C#N)cc4)CC3)cc2[nH]c1=O [Example 9] | 6.31 | 1580 | 0.501 | 0.501 | 
Cc1cc2ncc(CN3CCN(c4ccc(F)cn4)[C@H](C)C3)cc2[nH]c1=O [Example 23] | 39.8 | > 100000 | 100 | 200 | 
Cc1cc2ncc([C@@H](C)N3CCN(c4ccc(C#N)cn4)CC3)cc2[nH]c1=O (single isomer, unassigned) [Example 33] | 2.51 | 6310 | 3.16 | 2.51 | 
C[C@@H]1CN(Cc2cnc3cc(C4CC4)c(=O)[nH]c3c2)CCN1c1ccc(C#N)cn1 [Example 25] | 6.31 | > 100000 | 31.6 | 50.1 | 

Continued, values first:

IC50 [1] [nM] | IC50 [2] [nM] | EC50 [3] [nM] | EC50 [4] [nM] | FP PARP1 pIC50 [1] | SMILES
7.94 | > 100000 | 12.6 | 39.8 |  | Cc1cc2ncc(CN3CCN(c4ccc(C#N)nc4C4CC4)CC3)cc2[nH]c1=O [Example 27]
12.6 | 2000 | 0.794 | 1 |  | CCc1cc2ncc(CN3CCN(c4cc(F)c(C#N)cc4F)CC3)cc2[nH]c1=O [Example 41]
5.01 | 6310 | 63.1 | 50.1 |  | CCc1cc2ncc(CN3CCN(c4ccc(C#N)nc4)[C@H]4C[C@H]43)cc2[nH]c1=O (single isomer, unassigned) [Example 14]
6.31 | > 100000 | 3.16 | 2 |  | N#Cc1ccc(N2CCN(Cc3cnc4cc(Cl)c(=O)[nH]c4c3)CC2)c(F)n1 [Example 61]
6.31 | > 100000 | 3.98 | 3.16 |  | Cc1cc2ncc(CN3CCN(c4ccc(C#N)nc4F)CC3)cc2[nH]c1=O [Example 78]
10 | 50100 | 50.1 | 39.8 |  | CCc1cc2ncc(CN3CCN(c4ccc(F)nc4)CC3)cc2[nH]c1=O [Example 34]
15.8 | 25100 | 1.58 | 1.58 |  | [2H]C([2H])(c1cnc2cc(CC)c(=O)[nH]c2c1)N1CCN(c2ccc(F)cc2C#N)CC1 [Example 67]
50.1 | 7940 | 1.58 | 1.26 |  | Cc1c(Cl)c(=O)[nH]c2cc(CN3CCN(c4ccc(C#N)cc4)CC3)cnc12 [Example 2, 4-{4-[(7-chloro-8-methyl-6-oxo-5H-1,5-naphthyridin-3-yl)methyl]piperazin-1-yl}benzonitrile]
6.31 | > 100000 | 1.26 | 1 |  | N#Cc1ccc(N2CCN(Cc3cnc4cc(C(F)F)c(=O)[nH]c4c3)CC2)cc1 [Example 59]
6.31 | > 100000 | 2 | 1.26 |  | CCc1cc2ncc(CN3CCN(c4ccc(C#N)cc4OC)CC3)cc2[nH]c1=O [Example 39]

Reference: patent publication US12384780B2, “PARP1 inhibitors and uses thereof” (XinThera, Inc., priority 2022, dated 2025)
